According to patent US20040220089A1, “Ophthalmic preparation containing glycoprotein” (priority 2001, published 2004):

System: Madin-Darby Canine Kidney (MDCK) cells
Experiment: in vitro transepithelial permeability assay (fluorescein, Tchao) for eye irritation potential
Conditions: MDCK monolayer, 30 minutes at 37° C., Na-fluorescein permeability; SDS=100% response; less than 20% considered non-irritating
Excerpt: The Tchao technique is described as a method of determining potential eye irritation of a substance by correlating damage to a mono-layer of Madin-Darby Canine Kidney (MDCK) cells with damage to corneal epithelial cells. The amount of fluorescein passing through the cell mono-layer is a function of permeability of the cell mono-layer. Higher cell mono-layer permeability indicates greater damage to the cell junctions from application of a test solution thereto, whereas lower cell mono-layer permeability indicates less damage to the cell junctions from application of the test solution. […]
Test: Each insert is rinsed with Hanks Balanced Salt Solution (HBSS) 3×1 ml using a 10 ml syringe without needle. […] After incubation at room temperature for 30 minutes, the inserts are sequentially removed from the wells, and the amount of Na-fluorescein in each of the wells is measured in a CytoFluor 2300, using 540 nm excitation and 590 nm emission. […] It has been determined that the assay can measure the effect of 50 μg/ml SDS, and the effect on the permeability of the monolayer is linearly proportional to the concentrations of SDS from 50-250 μg/ml. Fluorescence units (arbitrary) of each test solution is plotted against test solutions.
Interpretation of results: The results are expressed as % of SDS response, and comparisons with the HBSS response. […]

CCCCCCCCCCCCOS(=O)(=O)[O-].[Na+] [SDS, sodium dodecyl sulfate]
RESPONSE (percentage of SDS response): 100%
